# Measurements from a melting point compilation (Tetko et al.).
row,SMILES,melting point [°C]
1,OC(CNC1CC1)c1ccc(F)cc1 (configuration not stated),84 to 86
2,Cc1cc(N)n(C2CCS(=O)(=O)C2)n1 (configuration not stated),215 to 217
3,O=C1OCCc2cc3c(=O)[nH]c(=O)[nH]c3nc21,380 to 382
4,Nc1nnc(-c2cccs2)[nH]1,202 to 204
5,c1cnc2c(c1)NCCCN2,84 to 86
6,Nc1ccc(N2CCSCC2)c(Cl)c1,101 to 103
7,CN(C)c1cc(C(F)(F)F)nc(Cl)n1,106 to 108
8,CC(C)(C)OC(=O)N1CCN(C(N)=S)CC1,168 to 170
9,O=c1[nH]c(N2CCOCC2)nc2scc(-c3ccccc3)c12,307 to 309
10,O=C1CCCCc2c[nH]cc21,64 to 66
11,Nc1ccc2c(c1)CCC(=O)N2Cc1ccc(Cl)cc1,142 to 144
12,O=C(O)COc1cc(C(F)(F)F)cc(C(F)(F)F)c1,102 to 104
13,N#Cc1c(N2CCOCC2)n[nH]c1N,195 to 197
14,Cc1cc(NC(=O)C2CCCCC2C(=O)O)[nH]n1 (configuration not stated),114 to 116
15,Cn1nnnc1SCC(=O)O,108 to 110
16,Cc1cn(C2CC(O)C(CO)O2)c(=O)[nH]c1=O (configuration not stated),187 to 189
17,Cn1ncc2c(=O)[nH]c(Cl)nc21,268 to 270
18,Clc1nc(-c2cccnc2)nc2scc(-c3ccccc3)c12,155 to 157
19,COC1CC(C(=O)O)N(C(=O)OC(C)(C)C)C1 (configuration not stated),79 to 81
20,Cc1noc(NC(=O)CCl)n1,161 to 163
21,Cc1cnnc(N)n1,174 to 176
22,NC(=O)C1CCCCN1C(=O)CCl (configuration not stated),149 to 151
23,O=c1ccc(Cl)n[nH]1,138 to 140

# Further lines, results first:
row,melting point [°C],SMILES
1,139 to 141,NC(=O)CCc1ccc(C(=O)CCl)cc1
2,187 to 189,O=C(O)c1ccn(-c2ccccc2Cl)n1
3,89 to 91,Cc1nnc(NCC2CC2)c2ccccc12
4,59 to 63,CCCC(=O)c1cccc([N+](=O)[O-])c1
5,126 to 128,O=C(CCCl)Nc1ccc(Br)cc1
6,146 to 148,CN(C)c1cc(N)ccn1
7,144 to 146,Cc1ccc(Nc2ncccc2N)cc1
8,235 to 237,O=C(O)c1cc2ccccc2cc1NC(=O)C1CC1
9,136 to 138,CCc1sc(=O)[nH]c1-c1ccccc1
10,188 to 192,N#CCCn1cc(/C=C/C(=O)O)c2ccccc21
11,105 to 107,O=[N+]([O-])c1ccccc1-c1cn[nH]c1
12,145 to 147,Nc1cccc2[nH]ncc12
13,188 to 190,CN1C(=O)CCC(C(=O)O)C1c1ccc(C(F)(F)F)cc1 (configuration not stated)
14,78 to 80,Sc1nnnn1Cc1ccco1
15,85 to 87,CS(=O)(=O)c1ccc(OCCCl)cc1
16,74 to 76,O=S(=O)(Cl)c1ccccc1-c1ccno1
17,92 to 94,CCCCn1c(N)cc(=O)n(C)c1=O

row,melting point [°C],SMILES
1,139 to 141,CC(C)(C)Oc1ccc(C(=O)O)cn1
2,132 to 134,O=[N+]([O-])c1cc(NCC2CC2)ccc1S(=O)(=O)NCC1CC1
3,100 to 102,Nc1ccc(S(=O)(=O)CC2CCCO2)cc1 (configuration not stated)
4,86 to 88,OCc1cncc2ccccc12
5,160 to 162,COc1ccccc1Nc1nc(N)nc(CCl)n1
6,232 to 234,Cc1cc(C(=O)O)c(C)n1-c1ccc(F)cc1
7,213 to 214,O=C(O)c1cccc2[nH]ccc12
8,151 to 153,O=C(NC1CC1)c1ccc(Br)cc1
9,135 to 137,Nc1ccc(NC(=O)Oc2ccccc2)cc1
10,188 to 190,Oc1ccc(Br)cc1-c1nn[nH]n1
11,140 to 142,COc1cccc(Cl)c1C(=O)O
12,118 to 120,COc1ccccc1CNc1cccc2cnccc12
13,135 to 140,NNC(=O)Cc1nc(-c2ccccc2)cs1
14,221 to 223,CNC(=O)c1cc2ccccc2[nH]1
15,152 to 154,O=C(O)c1ccccc1SCC(=O)N1CCc2ccccc21
16,57 to 59,COc1cc(C=NO)ccc1OC(F)F
17,169 to 171,Cc1cc(C(=O)O)cc([N+](=O)[O-])c1
